The values below come from ChEMBL document CHEMBL3217547, “3-Substituted coumarins as dual inhibitors of AChE and MAO for the treatment of Alzheimer's disease” (Medchemcomm, 2012).

Data set [1] deals with T1, Amine oxidase [flavin-containing] B (Homo sapiens, UniProt P27338).
T1 sequence (P27338 whole entry): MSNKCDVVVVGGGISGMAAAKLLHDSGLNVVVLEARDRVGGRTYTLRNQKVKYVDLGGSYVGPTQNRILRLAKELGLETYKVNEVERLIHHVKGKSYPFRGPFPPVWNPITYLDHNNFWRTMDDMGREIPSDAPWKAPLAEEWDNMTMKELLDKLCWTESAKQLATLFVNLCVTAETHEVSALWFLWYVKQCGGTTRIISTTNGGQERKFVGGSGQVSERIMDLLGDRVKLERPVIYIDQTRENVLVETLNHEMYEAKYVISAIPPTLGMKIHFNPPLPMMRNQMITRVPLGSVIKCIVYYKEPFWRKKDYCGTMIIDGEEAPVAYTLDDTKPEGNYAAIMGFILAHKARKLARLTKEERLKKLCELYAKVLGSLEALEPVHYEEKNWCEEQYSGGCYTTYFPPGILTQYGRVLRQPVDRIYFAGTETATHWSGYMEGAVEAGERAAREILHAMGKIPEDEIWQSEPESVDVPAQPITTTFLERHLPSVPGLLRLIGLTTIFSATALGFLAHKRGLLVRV
Description: Inhibition of recombinant human MAO-B assessed as production of hydrogen peroxide from p-tyramine after 15 mins by Amplex Red assay

For data set [2], the target named is T2, Amine oxidase [flavin-containing] A (Homo sapiens, UniProt P21397).
T2 sequence (P21397 whole entry): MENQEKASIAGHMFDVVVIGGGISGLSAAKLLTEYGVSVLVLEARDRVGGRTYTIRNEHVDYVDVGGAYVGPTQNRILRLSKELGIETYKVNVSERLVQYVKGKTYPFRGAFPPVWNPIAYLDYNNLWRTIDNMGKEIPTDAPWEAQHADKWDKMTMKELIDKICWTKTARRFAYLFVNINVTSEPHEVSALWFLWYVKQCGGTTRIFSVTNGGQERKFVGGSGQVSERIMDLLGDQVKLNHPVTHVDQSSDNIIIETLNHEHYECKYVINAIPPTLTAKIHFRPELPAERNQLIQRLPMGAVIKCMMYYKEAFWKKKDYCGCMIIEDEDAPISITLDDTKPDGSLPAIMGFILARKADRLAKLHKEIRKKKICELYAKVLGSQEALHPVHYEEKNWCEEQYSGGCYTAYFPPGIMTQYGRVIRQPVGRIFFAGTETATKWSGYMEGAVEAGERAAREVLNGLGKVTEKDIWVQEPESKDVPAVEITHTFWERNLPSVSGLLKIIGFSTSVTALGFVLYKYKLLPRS
Nature of the data set: Inhibition of recombinant human MAO-A assessed as production of hydrogen peroxide from p-tyramine up to 100 uM after 15 mins by Amplex Red assay. Conditions: 0.25 h.

The target of data set [3] is T3, Acetylcholinesterase (Homo sapiens, UniProt P22303). The data set is described as follows: Inhibition of recombinant human AChE expressed in HEK293 cells using acetylthiocholine iodide as substrate at 100 uM preincubated for 5 mins before substrate addition measured after 10 mins by Ellman's method. (DTNB colorimetry detects thiols as they appear.)
Data set [4] deals with T2, Amine oxidase [flavin-containing] A. The data set is described as follows: Inhibition of recombinant human MAO-A assessed as production of hydrogen peroxide from p-tyramine after 15 mins by Amplex Red assay.
In data set [5] the target is T1, Amine oxidase [flavin-containing] B. The data set is described as follows: Inhibition of recombinant human MAO-B assessed as production of hydrogen peroxide from p-tyramine at 100 uM after 15 mins by Amplex Red assay. Conditions: 0.25 h.
In data set [6] the target is T3, Acetylcholinesterase. The data set is described as follows: Inhibition of recombinant human AChE expressed in HEK293 cells using acetylthiocholine iodide as substrate preincubated for 5 mins before substrate addition measured after 10 mins by Ellman's method.
Data set [7] deals with T1, Amine oxidase [flavin-containing] B. The data set is described as follows: Inhibition of recombinant human MAO-B assessed as production of hydrogen peroxide from p-tyramine up to 100 uM after 15 mins by Amplex Red assay. As to conditions: 0.25 h.

Calls of active or inactive are those of the source. The rule behind the calls is not given here.

T3 sequence (P22303 whole entry): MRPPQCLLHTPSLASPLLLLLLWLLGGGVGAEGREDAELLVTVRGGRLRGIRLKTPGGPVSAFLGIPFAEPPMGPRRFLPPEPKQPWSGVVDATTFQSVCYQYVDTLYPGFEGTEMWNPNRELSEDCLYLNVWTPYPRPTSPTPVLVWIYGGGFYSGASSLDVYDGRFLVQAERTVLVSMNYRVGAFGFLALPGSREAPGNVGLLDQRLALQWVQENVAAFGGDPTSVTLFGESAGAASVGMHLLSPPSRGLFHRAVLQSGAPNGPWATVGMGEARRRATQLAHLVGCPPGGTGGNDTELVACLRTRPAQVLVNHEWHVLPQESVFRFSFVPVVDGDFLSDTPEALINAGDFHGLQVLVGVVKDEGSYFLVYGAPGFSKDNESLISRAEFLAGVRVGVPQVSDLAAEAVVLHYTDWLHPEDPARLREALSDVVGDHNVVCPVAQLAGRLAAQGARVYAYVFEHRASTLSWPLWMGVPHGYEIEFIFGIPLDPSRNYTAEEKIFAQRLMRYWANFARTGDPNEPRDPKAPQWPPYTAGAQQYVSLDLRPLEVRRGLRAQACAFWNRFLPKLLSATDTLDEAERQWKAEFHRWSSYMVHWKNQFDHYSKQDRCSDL

On to `COc1ccc(C(=O)Nc2cc3ccccc3oc2=O)cc1OC`, for which the IC50 (commonly the concentration needed to halve the response being measured) in data set [1] is 58.4 µM. Moreover, the “inhibition (INH)” value in data set [2] is recorded as “Not Active”. On Acetylcholinesterase [3], the inhibition (in general, the relative decrease from the control value, in per cent) is “inactive”.

As for `CC(=O)Nc1cc2ccccc2oc1=O`, the IC50 in data set [4] stood at 38.9 µM. For the same compound, in data set [5], the inhibition at 100 µM came out at 40%. The inhibition result on Acetylcholinesterase [3] was “inactive”.

On to `O=C(Nc1cc2ccccc2oc1=O)c1ccccc1`, for which, in data set [1], it took 0.76 µM to reach half-maximal inhibition (IC50). In addition, the “inhibition (INH)” value in data set [2] is listed as “Not Active”. On Acetylcholinesterase [3], the inhibition entry is “inactive”.

Consider `O=C(Nc1cc2ccccc2oc1=O)C1CCCCC1`, for which the IC50 in data set [1] turned out to be 50 µM. Further, the “inhibition (INH)” value in data set [2] is “Not Active”. Further, the inhibition entry at Acetylcholinesterase [3] is “inactive”.

In the case of `O=c1oc2ccccc2cc1-c1ccccc1`, the “inhibition (INH)” value in data set [2] is “Not Active”. Moreover, on Acetylcholinesterase [3], the inhibition result was “inactive”.

Consider `O=C(Nc1cc2ccccc2oc1=O)c1ccc(Cl)c(Cl)c1`, for which the IC50 amounted to 5.95 µM in data set [1] and 15 µM on Acetylcholinesterase [6]. In data set [2], the “inhibition (INH)” value is on record as “Not Active”.

In data set [1], `COc1cc(C(=O)Nc2cc3ccccc3oc2=O)cc(OC)c1OC` came in with an IC50 of 72.6 µM. Besides, the “inhibition (INH)” value in data set [2] was “Not Active”. For the same compound, at Acetylcholinesterase [3], the inhibition entry is “inactive”.

On to `Cc1ccc(-c2cc3cc(C)ccc3oc2=O)cc1`, for which the “inhibition (INH)” value in data set [2] is “Not Active”. For the same compound, the inhibition entry on Acetylcholinesterase [3] is “inactive”.

Take `O=C(CCl)Nc1cc2ccccc2oc1=O`: the “inhibition (INH)” value in data set [2] and in data set [7] was “Not Active” in each case. For the same compound, the inhibition entry on Acetylcholinesterase [3] is “inactive”.

As to `O=C(CBr)Nc1cc2ccccc2oc1=O`, the “inhibition (INH)” value in data set [2] and in data set [7] was “Not Active” each time. On Acetylcholinesterase [3], the inhibition result is “inactive”.

On to `Cc1ccc(C(=O)Nc2cc3cc(C)ccc3oc2=O)cc1`, for which the IC50 in data set [1] was 0.17 µM; in data set [4], 46 µM; at Acetylcholinesterase [6] it was 41.4 µM.

`COc1ccc(C(=O)Nc2cc3ccccc3oc2=O)cc1`: the IC50 in data set [1] is 30.5 µM; at Acetylcholinesterase [6], 69.5 µM. The “inhibition (INH)” value in data set [2] is recorded as “Not Active”.

Take `O=C(Nc1cc2ccccc2oc1=O)c1ccc([N+](=O)[O-])cc1`: the “inhibition (INH)” value in data set [2] and in data set [7] was “Not Active” in each case. At Acetylcholinesterase [6], the IC50 was 12.9 µM.

Turning to `Cc1ccc(C(=O)Nc2cc3ccccc3oc2=O)cc1`, the IC50 in data set [1] stood at 7.96 µM; at Acetylcholinesterase [6] it was 18.4 µM. In addition, the “inhibition (INH)” value in data set [2] is reported as “Not Active”.

Turning to `Cc1ccc2oc(=O)c(-c3ccccc3)cc2c1`, the “inhibition (INH)” value in data set [2] is “Not Active”. In addition, the inhibition entry at Acetylcholinesterase [3] was “inactive”.

`O=C(Nc1cc2ccccc2oc1=O)c1ccc(Cl)cc1`: the IC50 in data set [1] came to 1.95 µM; at Acetylcholinesterase [6], 18.7 µM. Moreover, the “inhibition (INH)” value in data set [2] is given as “Not Active”.
